Converted amounts (≈) assume the structure as drawn.
Columns and labels:
Micrococcus luteus = test: Minimum inhibitory concentration (MIC) determination; format: cell-based
Experimental: (§1) The determination of minimum inhibitory concentrations was performed as described in J. Antimicrob. Chemother. 2001;48 Suppl 1:5-16.

S. aureus 29213 = test: as above; format: cell-based; details: Staphylococcus aureus
Experimental: as §1

[1] = system: Chromobacterium violaceum; test: as above; format: cell-based
Experimental: as §1

E. faecalis 25912 = test: as above; format: cell-based; details: Enterococcus faecalis
Experimental: as §1

Mycobacterium lacticola = test: as above; format: cell-based
Experimental: as §1

[2] = system: S. aureus MRS3 (clinical isolate of a multiresistant S. aureus); test: as above; format: cell-based; details: Staphylococcus aureus
Experimental: as §1

Corynebact. fascians = test: as above; format: cell-based
Experimental: as §1

[3] = Transformation of Elansolid A2 in solution; format: physicochemical; details: in solution (especially in DMSO)
gram-positive bacteria = test: Elansolid C1: antibiotic spectrum against gram positive bacteria; format: cell-based

| MIC (Micrococcus luteus) | MIC (S. aureus 29213) | MIC [1] | MIC (E. faecalis 25912) | MIC (Mycobacterium lacticola) | MIC [2] | MIC (Corynebact. fascians) | transformation in solution [3] | SMILES | Inhibition zone (gram-positive bacteria; Arthrobacter simplex) | Inhibition zone (gram-positive bacteria; Bacillus polymyxa) | Inhibition zone (gram-positive bacteria; Bacillus thuringiensis) | Inhibition zone (gram-positive bacteria; Brevibact. ammoniagenes) | Inhibition zone (gram-positive bacteria; Corynebact. fascians) | Inhibition zone (gram-positive bacteria; Micrococcus luteus) | Inhibition zone (gram-positive bacteria; Mycobact. chitae) | Inhibition zone (gram-positive bacteria; Nocardia flava) | Inhibition zone (gram-positive bacteria; Staph. aureus) | Inhibition zone (gram-positive bacteria; Streptococcus faecalis) | activity against selected gram-positive bacteria (gram-positive bacteria; selected gram-positive bacteria) |
| --- | --- | --- | --- | --- | --- | --- | --- | --- | --- | --- | --- | --- | --- | --- | --- | --- | --- | --- | --- |
| 0.2 µg/mL (≈ 0.34 µM) | 4 µg/mL (≈ 6.79 µM) | 3.3 µg/mL (≈ 5.6 µM) | 64 µg/mL (≈ 109 µM) | 3.3 µg/mL (≈ 5.6 µM) | 0.8 µg/mL (≈ 1.36 µM) | 1.6 µg/mL (≈ 2.72 µM) | transformed into Elansolid A1 | CC1=CC2C(C3C1\C=C/C=C/C=C\C(O)C(C)C(O)C/C=C(C)/C=C/C(=O)OC3c1ccc(O)cc1)C(C)(C)CC2(C)O (stereo not drawn) [Elansolid A2] |  |  |  |  |  |  |  |  |  |  |  |
| 0.4 µg/mL (≈ 0.551 µM) |  |  |  |  | 1.7 µg/mL (≈ 2.34 µM) |  |  | CC1=CC2C(C(C(Nc3ccccc3C(=O)O)c3ccc(O)cc3)C1\C=C/C=C/C=C\C(O)C(C)C(O)C/C=C(C)/C=C/C(=O)O)C(C)(C)CC2(C)O (stereo not drawn) [Elansolid C1] | 25 mm | 20 mm | 17 mm | 17 mm | 26 mm | 27 mm | 15 mm | 14 mm | 11 mm | 14 mm | bactericidal activity |
